Legend:
[1] = system: Rattus norvegicus; assay: Decrease in alcohol intake in rat assessed as ethanol intake at 2 mg/kg, ip administered daily during last 3 days of 10 day period of two-bottel choice paradigm (reference value: 7 g/kg); format: functional
[2] = Drug uptake in baboon hippocampus after 20 mins by LC-MS/MS analysis; format: ADME, tissue-based; settings: papio anubis, in vivo
[3] = Lipophilicity, log P of compound by LC-MS/MS analysis; format: physicochemical; settings: octanol/water
[4] = molecular target: Histone deacetylase 2 (Homo sapiens, UniProt Q92769); assay: Inhibition of HDAC2 (unknown origin)
Histone deacetylase 2, sequence (Q92769 whole entry): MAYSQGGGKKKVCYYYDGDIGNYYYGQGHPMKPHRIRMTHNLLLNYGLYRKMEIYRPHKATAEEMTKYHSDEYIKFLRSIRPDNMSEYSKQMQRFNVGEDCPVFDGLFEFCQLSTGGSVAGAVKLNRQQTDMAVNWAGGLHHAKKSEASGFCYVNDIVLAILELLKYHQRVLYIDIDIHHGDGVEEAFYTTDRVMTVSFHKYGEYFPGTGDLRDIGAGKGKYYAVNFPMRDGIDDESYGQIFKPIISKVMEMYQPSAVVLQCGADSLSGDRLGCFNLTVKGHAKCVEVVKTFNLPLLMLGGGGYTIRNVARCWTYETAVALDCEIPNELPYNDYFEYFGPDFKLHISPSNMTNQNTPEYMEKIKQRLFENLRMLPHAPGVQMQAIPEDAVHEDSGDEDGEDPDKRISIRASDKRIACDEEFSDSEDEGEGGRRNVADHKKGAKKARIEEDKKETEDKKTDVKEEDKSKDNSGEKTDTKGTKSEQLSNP

[5] = molecular target: T1, Polyamine deacetylase HDAC10 (Homo sapiens, UniProt Q969S8); assay: Inhibition of HDAC10 (unknown origin)
T1 sequence (Q969S8 whole entry): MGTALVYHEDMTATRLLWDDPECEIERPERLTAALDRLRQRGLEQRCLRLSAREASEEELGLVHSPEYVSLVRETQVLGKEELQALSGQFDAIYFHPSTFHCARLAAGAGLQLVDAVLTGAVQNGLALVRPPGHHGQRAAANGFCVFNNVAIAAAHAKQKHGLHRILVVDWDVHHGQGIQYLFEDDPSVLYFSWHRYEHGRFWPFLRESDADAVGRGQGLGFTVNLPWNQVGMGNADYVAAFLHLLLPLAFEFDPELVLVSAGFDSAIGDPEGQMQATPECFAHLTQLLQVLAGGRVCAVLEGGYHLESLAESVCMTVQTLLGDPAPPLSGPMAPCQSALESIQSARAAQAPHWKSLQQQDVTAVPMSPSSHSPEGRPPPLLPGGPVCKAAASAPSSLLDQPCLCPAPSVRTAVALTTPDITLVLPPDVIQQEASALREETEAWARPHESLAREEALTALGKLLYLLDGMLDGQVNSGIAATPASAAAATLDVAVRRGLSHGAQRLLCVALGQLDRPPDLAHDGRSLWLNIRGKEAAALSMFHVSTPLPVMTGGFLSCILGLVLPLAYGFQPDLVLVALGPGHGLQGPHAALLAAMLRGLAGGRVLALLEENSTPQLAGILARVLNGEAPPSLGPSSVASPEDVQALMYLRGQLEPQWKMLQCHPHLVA

[6] = molecular target: Histone deacetylase 3 (Homo sapiens, UniProt O15379); assay: Inhibition of HDAC3 (unknown origin)
Histone deacetylase 3, sequence (O15379 whole entry): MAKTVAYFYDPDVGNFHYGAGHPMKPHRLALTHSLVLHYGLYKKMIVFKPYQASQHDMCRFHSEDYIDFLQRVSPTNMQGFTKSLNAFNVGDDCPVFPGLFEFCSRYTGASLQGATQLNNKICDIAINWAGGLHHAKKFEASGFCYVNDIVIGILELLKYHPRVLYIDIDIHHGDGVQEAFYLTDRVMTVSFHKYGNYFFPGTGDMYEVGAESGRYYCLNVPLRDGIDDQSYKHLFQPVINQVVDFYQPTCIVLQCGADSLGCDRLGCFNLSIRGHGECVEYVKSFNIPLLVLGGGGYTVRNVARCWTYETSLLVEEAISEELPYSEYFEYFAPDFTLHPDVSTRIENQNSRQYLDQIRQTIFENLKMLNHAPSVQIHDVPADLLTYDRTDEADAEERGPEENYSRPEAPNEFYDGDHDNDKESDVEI

[7] = molecular target: Histone deacetylase 1 (Homo sapiens, UniProt Q13547); assay: Inhibition of HDAC1 (unknown origin)
Histone deacetylase 1, sequence (Q13547 whole entry): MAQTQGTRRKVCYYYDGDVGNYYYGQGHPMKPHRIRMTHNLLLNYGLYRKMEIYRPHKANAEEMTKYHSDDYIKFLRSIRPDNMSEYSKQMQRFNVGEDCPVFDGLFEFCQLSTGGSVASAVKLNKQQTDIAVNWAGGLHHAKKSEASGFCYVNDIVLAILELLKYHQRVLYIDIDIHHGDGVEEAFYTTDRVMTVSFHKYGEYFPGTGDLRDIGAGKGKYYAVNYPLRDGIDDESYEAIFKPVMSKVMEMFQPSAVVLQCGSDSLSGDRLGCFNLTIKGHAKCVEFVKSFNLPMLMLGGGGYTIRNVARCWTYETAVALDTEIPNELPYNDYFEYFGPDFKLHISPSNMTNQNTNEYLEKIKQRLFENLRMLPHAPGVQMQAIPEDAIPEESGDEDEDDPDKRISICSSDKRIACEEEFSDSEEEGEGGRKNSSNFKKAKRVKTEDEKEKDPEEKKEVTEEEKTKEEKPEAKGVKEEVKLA

[8] = molecular target: T2, Histone deacetylase 11 (Homo sapiens, UniProt Q96DB2); assay: Inhibition of HDAC11 (unknown origin)
T2 sequence (Q96DB2 whole entry): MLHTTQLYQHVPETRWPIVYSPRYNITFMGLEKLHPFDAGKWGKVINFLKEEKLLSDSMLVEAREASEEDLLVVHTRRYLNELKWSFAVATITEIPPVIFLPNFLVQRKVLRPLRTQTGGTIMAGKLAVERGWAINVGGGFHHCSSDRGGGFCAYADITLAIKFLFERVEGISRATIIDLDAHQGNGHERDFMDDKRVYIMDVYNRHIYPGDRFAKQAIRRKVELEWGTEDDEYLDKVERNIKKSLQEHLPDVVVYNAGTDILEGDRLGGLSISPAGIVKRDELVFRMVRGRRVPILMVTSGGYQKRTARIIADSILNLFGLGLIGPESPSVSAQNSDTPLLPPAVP

[9] = molecular target: T3, Protein deacetylase HDAC6 (Homo sapiens, UniProt Q9UBN7); assay: Inhibition of HDAC6 (unknown origin)
T3 sequence (Q9UBN7 whole entry): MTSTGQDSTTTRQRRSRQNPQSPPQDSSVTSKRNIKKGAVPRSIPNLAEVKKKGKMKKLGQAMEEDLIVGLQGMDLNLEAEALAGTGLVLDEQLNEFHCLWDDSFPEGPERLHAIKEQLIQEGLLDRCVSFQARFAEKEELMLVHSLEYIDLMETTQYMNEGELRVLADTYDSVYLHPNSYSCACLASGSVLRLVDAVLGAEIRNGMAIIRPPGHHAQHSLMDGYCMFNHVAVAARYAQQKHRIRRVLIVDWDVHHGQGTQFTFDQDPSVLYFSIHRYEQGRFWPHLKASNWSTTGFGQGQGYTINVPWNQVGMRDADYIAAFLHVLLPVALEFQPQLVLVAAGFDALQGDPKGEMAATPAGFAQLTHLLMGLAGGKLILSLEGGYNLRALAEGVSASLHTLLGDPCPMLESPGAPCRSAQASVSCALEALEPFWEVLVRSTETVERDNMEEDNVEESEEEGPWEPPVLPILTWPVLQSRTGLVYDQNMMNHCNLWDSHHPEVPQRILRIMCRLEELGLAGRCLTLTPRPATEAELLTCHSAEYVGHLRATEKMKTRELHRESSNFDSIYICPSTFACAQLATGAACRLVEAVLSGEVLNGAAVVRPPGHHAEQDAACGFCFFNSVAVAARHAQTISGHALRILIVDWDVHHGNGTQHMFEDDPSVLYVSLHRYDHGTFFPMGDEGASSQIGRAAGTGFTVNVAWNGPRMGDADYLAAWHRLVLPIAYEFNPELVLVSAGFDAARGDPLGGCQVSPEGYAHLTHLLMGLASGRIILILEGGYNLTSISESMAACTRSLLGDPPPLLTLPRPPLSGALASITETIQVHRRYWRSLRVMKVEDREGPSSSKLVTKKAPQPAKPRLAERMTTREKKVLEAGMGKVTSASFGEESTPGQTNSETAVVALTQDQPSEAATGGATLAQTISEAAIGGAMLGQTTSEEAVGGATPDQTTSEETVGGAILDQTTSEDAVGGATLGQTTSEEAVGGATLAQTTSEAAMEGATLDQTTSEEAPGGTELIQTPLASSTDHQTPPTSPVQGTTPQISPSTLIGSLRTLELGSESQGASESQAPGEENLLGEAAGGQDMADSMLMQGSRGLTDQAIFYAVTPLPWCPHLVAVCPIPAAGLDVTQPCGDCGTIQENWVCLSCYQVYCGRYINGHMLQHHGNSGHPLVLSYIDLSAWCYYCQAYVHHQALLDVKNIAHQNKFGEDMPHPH

[10] = molecular target: Histone deacetylase 4 (Homo sapiens, UniProt P56524); assay: Inhibition of HDAC4 (unknown origin)
Histone deacetylase 4, sequence (P56524 whole entry): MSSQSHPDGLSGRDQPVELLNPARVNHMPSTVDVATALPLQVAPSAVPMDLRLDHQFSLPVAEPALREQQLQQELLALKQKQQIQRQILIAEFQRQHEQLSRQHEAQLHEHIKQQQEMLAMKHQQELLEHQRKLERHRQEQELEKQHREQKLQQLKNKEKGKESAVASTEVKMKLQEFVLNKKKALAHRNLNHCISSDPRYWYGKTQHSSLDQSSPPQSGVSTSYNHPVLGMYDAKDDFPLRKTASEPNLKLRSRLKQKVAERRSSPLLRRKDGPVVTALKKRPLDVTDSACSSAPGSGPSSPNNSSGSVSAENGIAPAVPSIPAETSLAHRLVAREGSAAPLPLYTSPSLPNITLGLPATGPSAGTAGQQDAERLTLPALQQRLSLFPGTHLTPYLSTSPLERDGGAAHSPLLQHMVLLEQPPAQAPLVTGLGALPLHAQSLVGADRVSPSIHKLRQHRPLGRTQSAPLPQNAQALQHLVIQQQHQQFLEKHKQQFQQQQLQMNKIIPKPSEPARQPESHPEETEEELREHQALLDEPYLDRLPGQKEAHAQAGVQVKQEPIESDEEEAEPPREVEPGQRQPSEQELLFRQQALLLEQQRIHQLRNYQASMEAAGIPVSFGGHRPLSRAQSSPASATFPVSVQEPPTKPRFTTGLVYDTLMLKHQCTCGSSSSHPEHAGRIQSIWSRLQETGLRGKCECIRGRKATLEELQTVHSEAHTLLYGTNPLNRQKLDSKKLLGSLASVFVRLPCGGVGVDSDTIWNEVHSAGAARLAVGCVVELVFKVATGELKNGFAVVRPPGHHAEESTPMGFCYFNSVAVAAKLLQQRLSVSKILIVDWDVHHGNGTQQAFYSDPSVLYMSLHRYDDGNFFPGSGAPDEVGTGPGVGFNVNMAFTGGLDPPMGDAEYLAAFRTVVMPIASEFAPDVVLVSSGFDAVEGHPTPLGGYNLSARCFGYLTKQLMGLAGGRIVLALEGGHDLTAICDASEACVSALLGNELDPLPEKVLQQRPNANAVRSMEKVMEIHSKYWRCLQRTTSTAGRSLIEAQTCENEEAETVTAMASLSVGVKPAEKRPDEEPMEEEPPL

[11] = system: Rattus norvegicus; assay: Decrease in alcohol intake in rat assessed as operant alcohol self-administration at 50 mg/kg, ip administered once in a week relative to control; format: functional; set-up: scale not given: the % may be the effect or the level left
[12] = system: Mus musculus; assay: Decrease in alcohol intake in C57BL/6J mouse at 50 mg/kg, ip relative to control; format: functional; set-up: scale not given: the % may be the effect or the level left
[13] = system: Mus musculus; assay: Decrease in alcohol intake in C57BL/6J mouse at 100 mg/kg, ip relative to control; format: functional; set-up: scale not given: the % may be the effect or the level left

CC(/C=C/C(=O)NO)=C\[C@@H](C)C(=O)c1ccc(N(C)C)cc1 [TRICHOSTATIN]
Activity [1]: <1 g/kg

COc1ccc(Cn2ccc3ccc(C(=O)NO)cc32)cc1
Drug uptake [2]: 30%
logP [3]: 2.61

COc1ccc(/C=C/C(=O)NO)c(-c2ccc(-c3ccccc3)cc2)c1
IC50 [4]: > 20 µM
IC50 [5]: > 20 µM
IC50 [6]: 3 µM
IC50 [7]: 3 µM
IC50 [8]: > 20 µM
IC50 [9]: > 20 µM
IC50 [10]: > 20 µM

O=C(CCCCCCC(=O)Nc1ccccc1)NO [VORINOSTAT]
Activity [11]: 20%
Activity [12]: 40%
Activity [13]: 40%
